Assay results published in ChEMBL document CHEMBL2380282, “CROSS: an efficient workflow for reaction-driven rescaffolding and side-chain optimization using robust chemical reactions and available reagents” (J Med Chem, 2013).

Molecular target: Prothrombin (Homo sapiens, UniProt P00734)
Test: Inhibition of thrombin (unknown origin)

Ki [nM]	Compound
10	COc1ccc(OC)c(S(=O)(=O)NC2CCCCN(CC(=O)NCc3ccc(C(=N)N)cc3)C2=O)c1 (configuration not stated)
15.8	N=C(N)c1ccc(CNC(=O)CN2C(=O)C(NS(=O)(=O)c3ccc4c(c3)CCO4)CCc3ccccc32)cc1 (configuration not stated)
